Test results: patent US20180111991A1, “MODULATORS OF ACTIVIN AND METHODS FOR MODULATING IMMUNE RESPONSES AND T FOLLICULAR HELPER CELLS” (LA JOLLA INSTITUTE FOR ALLERGY AND IMMUNOLOGY, priority 2014, published 2018)
Entries after “also recorded” stand apart in the source; their conditions may differ.

Legend:
Format in all cases: cell-based
human naïve CD4 T cells [1] = assay: BCL6 intranuclear expression by FACS on in vitro differentiated cells; settings: for induction of Bcl6+CXCR5+ cells: titration with or without IL-12 (FIG. 11)
Experimental: (§1) For surface staining, primary-staining panels used for phenotypic analysis or for cell sorting known in the art were used. For the intranuclear staining: cells were treated with the FoxP3 Fixation/Permeabilization kit (eBioscience) and stained in Permeabilization buffer (eBioscience). For cytokine staining: day 3 or day 5 in vitro differentiated cells (specified in the main text or in figure legends) cells were stimulated for 5 hours at 37° C. with Phorbol 12-myristate 13-acetate (PMA, 25 ng/ml) and Ionomycin (1 μg/ml) in the presence of Brefeldin A (5 μg/ml). Cells were fixed with PBS 2% FBS, 1% PFA and permeabilized with PBS 2% FBS, 0.5% Saponin (from quillaja bark, Sigma-Aldrich). Samples were analyzed on a LSR Fortessa Cell Analyzer (BD, Bioscience). Flow cytometry data were analyzed with FlowJo (Tree Star). For cell sorting, cells were sorted using sorted using a FACS Aria (BD, Bioscience).
(§2) Unless differently specified, naïve CD4^+ T cells were enriched from PBMCs by magnetic bead negative selection with the Naïve CD4^+ T Cell Isolation Kit (Stem Cell Technologies). Purity (CD4^+CD45RA^+) was 90% or higher. Cells (7.5×10^4 cells/well) were activated by Dynabeads Human T-Activator CD3/CD28 (2 μl/well, Life Technologies) and cultured with recombinant human/mouse/rat activin A (50 ng/ml or 100 ng/ml), recombinant human IL-12 (5 ng/ml), recombinant human TGFβ (1 ng/ml), recombinant human IL-23 (10 ng/ml) or recombinant human IL-35 (10 ng/ml) in the presence of and recombinant human IL-7 (4 ng/ml) in AIM-V medium (Life Technologies). All cytokines were from R&D System and Peprotech. The 14 kDa mature human beta A chain of human activin A shares 100% amino acid sequence identity with bovine, feline, mouse, porcine, and rat beta A. Phenotype was quantified after 3 or 5 days, as specified in the main text of Figure legends. Similar results were obtained when using Treg-depleted FACS sorted naïve CD4 T cells, in which cells were sorted from total PBMCs by flow cytometry as CD19^−CD8^−CD14^−CD16^− CD4^+CD45RO^−CD25^− cells. For experiments quantifying supernatant CXCL13 concentration, cells were activated by plate-bound anti-human CD3 (5 μg/ml, BD) and ICOS-L (5 μg/ml, recombinant human B7-H2, R&D). CXCL13 concentrations were determined via human CXCL13 DuoSet ELISA (R&D) on supernatants harvested after 5 days of in vitro culture. For blocking experiments, cells were cultured with anti-activin A blocking mAb (5 μg/ml, clone 69403, R&D), anti-TGFβ mAb (100 μg/ml, clone 1D11.16.8, BioXcell), or equivalent concentration of mouse IgG1 isotype mAb (BioXcell). For blockade of IL-2, cells were cultured with anti-IL-2 blocking mAb (10 μg/ml, clone 5334, R&D) or mouse IgG1 isotype mAb (BioXcell).

human naïve CD4 T cells [2] = assay: FoxP3 induction by FACS in in vitro differentiated cells; settings: for FoxP3 expression (FoxP3+ cells): with or without IL-12, day 5
Experimental: as §1
Unless differently specified, naïve CD4^+ T cells were enriched from PBMCs by magnetic bead negative selection with the Naïve CD4^+ T Cell Isolation Kit (Stem Cell Technologies). Purity (CD4^+CD45RA^+) was 90% or higher. […] The 14 kDa mature human beta A chain of human activin A shares 100% amino acid sequence identity with bovine, feline, mouse, porcine, and rat beta A. Phenotype was quantified after 3 or 5 days, as specified in the main text of Figure legends. […] For experiments quantifying supernatant CXCL13 concentration, cells were activated by plate-bound anti-human CD3 (5 μg/ml, BD) and ICOS-L (5 μg/ml, recombinant human B7-H2, R&D). CXCL13 concentrations were determined via human CXCL13 DuoSet ELISA (R&D) on supernatants harvested after 5 days of in vitro culture. […]

human naïve CD4 T cells [3] = assay: RNA sequencing and GSEA of in vitro differentiated CD4 T cells; settings: for genes differentially upregulated, activin A+IL-12 versus TGFβ+IL-12: each cytokine combined with IL-12, RNA-seq day 3; for expression of bona fide GC Tfh signature genes (GSEA): activin A or activin A+IL-12 versus beads, IL-12
Experimental: Differentiation of naïve CD4^+ T cells with activin A and/or IL-12 was described above. Naïve CD4 T cells from 4 or more donors were cultured with the following conditions: beads only (beads), IL-12, activin A (100 ng/ml), activin A (100 ng/ml)+IL-12, TGFβ, TGFβ+IL-12. After 3 days of in vitro culture, live CD4^+ T cells were sorted by FACS. Total RNA was purified using miRNAeasy Mini kit (Qiagen). Standard quality control steps were included to determine total RNA quality using Agilent Bioanalyzer (RNA integrity number (RIN)>8.5; Agilent RNA 6000 Nano Kit, USA) and quantity using a nanoliter spectrophotometer (Nanodrop, Thermofisher, USA). For every sample, 500 ng of purified total RNA was prepared into mRNA libraries, according to manufacturer's instructions, using the Truseq Stranded mRNA Library Prep Kit (Illumina, RS-122-2103). The resulting libraries were deep sequenced, using the Illumina HiSeq2500 system in rapid run mode, to obtain between 6 to 7 millions of 50-bp length single-end reads per library.
The single-end reads that passed Illumina filters were filtered for reads aligning to tRNA, rRNA, adapter sequences, and spike-in controls. The reads were then aligned to UCSC hg19 reference genome using TopHat^55(v 1.4.1). DUST scores were calculated with PRINSEQ Lite^56 (v 0.20.3) and low-complexity reads (DUST >4) were removed from the BAM files. The alignment results were parsed via the SAMtools^57 to generate SAM files. Read counts to each genomic feature were obtained with the htseq-count program^58 (v 0.6.0) using the “union” option. After removing absent features (zero counts in all samples), the raw counts were converted to RPKM value followed by quantile normalization via R library ‘aroma.light’ ^59. Then the quantile normalized RPKM values were filtered by setting a cutoff value of 1 and analyzed with the Multiplot module in GenePattern suite (http://www.broadinstitute.org/cancer/software/genepattern/) to generate the Volcano, Heatmap and Expression plots. Meanwhile the filtered raw counts were imported to R/Bioconductor package DESeq2^60 (v 3.1) to normalize counts and identify differentially expressed genes among conditions.
The tonsil GC Tfh gene set was generated from previously published microarray data^38 and defined by genes with more than two-fold higher expression in GC-Tfh cells (CD4^+CD45RO^+PD-1^hiCXCR5^hi) compared to non-Tfh cells (CD4^+CD45RO^+PD-1^−CXCR5^−). […] The signal-to-noise metric was used for ranking the genes in the RNA-seq expression datasets and 10^5 cycles of permutations on the phenotype labels were performed to determine the normalized enrichment score (NES).

human naïve CD4 T cells [4] = assay: CCR7 expression by FACS on in vitro differentiated cells; settings: for CCR7 downregulation (CCR7+CXCR5+ cells): with or without IL-12 (FIG. 10); for CCR7 expression (MFI): activated CD4 T cells, day 5
Experimental: as §1, §2

TGFβ
induction of Bcl6+CXCR5+ cells (human naïve CD4 T cells [1]): No detectable induction of Bcl6 | FoxP3 expression (FoxP3+ cells) (human naïve CD4 T cells [2]): induce high FoxP3 expression; also recorded: preferentially induces FoxP3 | genes differentially upregulated, activin A+IL-12 versus TGFβ+IL-12 (human naïve CD4 T cells [3]): 45 genes | CCR7 downregulation (CCR7+CXCR5+ cells) (human naïve CD4 T cells [4]): influence CCR7 downregulation

activin A: commercial recombinant cytokine, homodimer of the INHBA gene product (inhibin beta A)
Bcl6 protein expression (human naïve CD4 T cells [1]; activin A with or without IL-12, FACS intranuclear staining (FIG. 8C)): significant expression of Bcl6, particularly when combined with IL-12 | BCL6 expression (human naïve CD4 T cells [1]; activin A+IL-12, day 5 (FIG. 2F)): a fraction of CD4 T cells differentiated with activin A+IL-12 increased expression of BCL6 | induction of Bcl6+CXCR5+ cells (human naïve CD4 T cells [1]): No detectable induction of Bcl6 | FoxP3 upregulation (FoxP3+CXCR5+ cells) (human naïve CD4 T cells [2]; activin A with recombinant TGFβ): synergize in inducing FoxP3 upregulation | FoxP3 expression (FoxP3+ cells) (human naïve CD4 T cells [2]): but not activin A was found to induce high FoxP3 expression; also recorded: less potent than TGFβ in driving the generation of FoxP3^+ cells; also recorded: induced less FoxP3 expression | regulation of Tfh-signature genes LIF, LTA, PDCD1, TNF (human naïve CD4 T cells [3]; RNA-seq day 3, heat-map (FIG. 2K)): major factor regulating several Tfh-signature genes such as LIF, LTA, PDCD1, and TNF | expression of bona fide GC Tfh signature genes (GSEA) (human naïve CD4 T cells [3]): imprinted with bona fide GC Tfh signature genes | expression of bona fide GC Tfh signature genes (GSEA) (human naïve CD4 T cells [3]; listed as Activin A): contributed more than IL-12 to driving expression of bona fide GC Tfh associated genes | genes selectively upregulated versus beads only (human naïve CD4 T cells [3]; activin A+IL-12, RNA-seq day 3): 116 genes | genes suppressed versus beads only (human naïve CD4 T cells [3]; activin A+IL-12, RNA-seq day 3): 60 genes | genes differentially upregulated, activin A+IL-12 versus TGFβ+IL-12 (human naïve CD4 T cells [3]): 35 genes | CCR7 expression (MFI) (human naïve CD4 T cells [4]): decreased CCR7 expression | CCR7 expression (MFI) (human naïve CD4 T cells [4]; listed as Activin A): sufficient to decrease CCR7 expression | CCR7 downregulation (CCR7+CXCR5+ cells) (human naïve CD4 T cells [4]): influence CCR7 downregulation
